According to patent US20080221134A1, “8-ALKYNYLXANTHINES AND DERIVATIVES” (priority 2006, published 2008):

Experiments:
[1] = system: CGS-21680 induced catalepsy; assay: Acute CGS-21680 induced catalepsy test; assay type: in vivo, rat; settings: i.p. in DMSO, 0.1-10 mg/kg; listed as 8-(phenylethynyl)-DPMX
Method: (§1) Animals were administered with Reserpine or CGS-21680 according to methods known to the skilled person in the art. These models and procedures are e.g. described by Ferré S. et al., Neurosci. Let., 1991, 130, 162; Ferré S. et al., Neuroscience, 1992, 51, 501; Kafka S. H. et al., Eur. J. Pharmacol., 1996, 295, 147; Rimondini R. et al., Neuropsychopharmacology, 1997, 17, 82 and are herein incorporated by reference. In the acute CGS-21680 induced catalepsy model (CGS model) the test compounds (TC, compounds according to the present invention) and CGS-21680 (i.p. 2 mg/kg) were administered 60 minutes before the start of the catalepsy bar measurement and behavioural testing described below (see also FIG. 1). In the acute Reserpine induced catalepsy model (RES model Resperine (subcutaneously, 3 mg/kg) was injected 24 h prior to the test compound application. Catalepsy bar measurement took place 60 minutes after test compound application (see FIG. 1). Test compounds were administered i.p. in DMSO in following doses (mg/kg): 0.1, 0.3, 1, 3, 10.
(§2) Dimethylsulfoxide (DMSO) was used as vehicle for the test compounds and Reserpine. Reserpine was dissolved in DMSO in a concentration of 3 mg/ml. A 10% (w/v) Cyclodextrin solution was used as vehicle for CGS-21680. CGS 21680 was dissolved in 10% (w/v) Cyclodextrine in a concentration of 2 mg/ml.
Caffeine was used as a reference compound in the CGS-21680 induced catalepsy model. A caffeine solution was prepared with water for injection purposes to a concentration of 30 mg/ml. The solution was administered intraperitoneally in a volume of 1 ml/kg (30 mg/kg) 30 minutes before the beginning of testing and after CGS-21680 pre-treatment (1 hour prior to testing).
The catalepsy bar after CGS-21680 administration was measured (CAT) as follows: The rat was placed with its forepaws on a log of wood. […] If the animal descended faster than 1 second, the trial was regarded as invalid. If more than 20 trials were rated as invalid, the values of all uncompleted trials were noted as 0. The animal was tested until five trials had been completed and the time for each trial was noted. Only the values of the last three trials were used for the analysis. The following parameters were calculated: maximum time to descend (s) and median time to descend (s).
Behavioural observation (BO) included the measurement of the body tone, inclined plane and grip strength.
The rat is taken in the hand of the observer and the animal's body tone is rated as normal, soft or hard. The rating is performed immediately after taking the animal from its home cage before performance of catalepsy testing. The following parameters were calculated: mean occurrence of hard body tone and mean occurrence of soft body tone.
The rat is horizontally placed to an inclined plane for a maximum time of 30 seconds. Time to reach bottom or top is measured. […] The test is performed after catalepsy testing. Time to leave the inclined plane(s) was measured.
The rat is put on a grip and the observer pulls the animal back on his tail. The strength (fore paws and hind paws) by which it holds on the grid is scored as grasping and pulling, grasping without pulling or no grasping. The test is performed after the inclined plane test. The following parameters were calculated: mean score of fore paw grip strength and mean score of hind paw grip strength.
(§3) All statistical tests were performed two tailed with a value of p<0.05 considered as significant.
(§4) To assess the effects of CGS-21680 and Reserpine pre-treatment compared to vehicle treated controls statistical comparisons between the test groups were performed using a U test statistic.
To assess the effects of test compounds on CGS-21680 and Reserpine pre-treated animals correlation analyses including animals from test groups and the respective test compound-treated groups were performed. […]

[2] = system: Reserpine induced catalepsy; assay: Acute Reserpine induced catalepsy test; assay type: in vivo, rat; settings: i.p. in DMSO, 0.1-10 mg/kg; listed as 8-(phenylethynyl)-DPMX
Method: as §1, §2
Apomorphine was used as a reference compound in the Reserpine induced catalepsy model. Apomorphine injection solution was diluted with purified water to a concentration of 0.3 mg/ml. The solution was administered subcutaneously (s.c.) in a volume of 1 ml/kg (0.3 mg/kg) 20 minutes before the begin of testing after Reserpine pre-treatment (25 hours prior to testing).
The catalepsy bar after Reserpine administration was measured (CAT) as follows: The rat was placed with its forepaws on a log of wood. […] The animal was tested for three trials and the time for each trial was noted. The following parameters were calculated: maximum time to descend (s) and median time to descend (s). […]
as §3, §4
To assess the effects of test compounds on CGS-21680 and Reserpine pre-treated animals correlation analyses including animals from test groups and the respective test compound-treated groups were performed.
Additionally, parametric and non-parametric comparisons for the median catalepsy measure were performed to assess the reliability of the method. In case of parametric testing a GLM analyses was performed including animals from a control group (only vehicle treated animals) and the respective test compound-treated groups with dose as a categorical factor. In case of a significant result, a Dunnett's post hoc test was performed between the according test compound groups and a control group as reference group. In case of non-parametric testing a Kruskal-Wallis H-test was performed including animals from a control group and the respective test compound groups. In case of a significant result single U-test comparisons were performed between a control group and the groups treated with different doses of the test compound.

human A2A receptor = human A2A receptor (Homo sapiens, UniProt P29274); assay: Human A2A receptor IC50/Imax (unpublished results); assay type: binding
Chain of human A2A receptor (P29274 whole entry): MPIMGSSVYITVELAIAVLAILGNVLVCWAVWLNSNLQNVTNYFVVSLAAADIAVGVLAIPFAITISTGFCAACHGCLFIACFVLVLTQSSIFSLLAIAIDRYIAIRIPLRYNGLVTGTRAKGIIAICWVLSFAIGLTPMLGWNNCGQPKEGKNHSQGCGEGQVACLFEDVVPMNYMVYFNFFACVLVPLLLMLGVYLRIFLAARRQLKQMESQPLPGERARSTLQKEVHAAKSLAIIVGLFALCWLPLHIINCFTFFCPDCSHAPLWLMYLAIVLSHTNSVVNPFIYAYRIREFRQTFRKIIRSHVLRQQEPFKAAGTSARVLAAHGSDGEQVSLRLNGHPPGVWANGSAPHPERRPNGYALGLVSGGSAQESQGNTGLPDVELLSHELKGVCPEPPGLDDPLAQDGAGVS

[3] = Water solubility (statement); assay type: physicochemical; settings: listed as 8-(phenylethynyl)-DMPX

Question: For C#CCn1c(=O)c2c(nc(C#Cc3ccccc3)n2C)n(C)c1=O, which “effect on catalepsy time in acute CGS-21680 induced catalepsy model” value [1] is on record?
Answer: inactive

Question: What about the “effect on catalepsy time in acute Reserpine induced catalepsy model” value [2] of the same molecule?
Answer: inactive

Question: And the IC50 (human A2A receptor)?
Answer: > 300 nM

Question: And the “Imax at the human receptor” value (human A2A receptor)?
Answer: about 37%

Question: What about the “water solubility (in words)” value [3] of the same molecule?
Answer: low solubility
